{"source": "patent US20160102058A1", "about": "“FLUORO-PERHEXILINE COMPOUNDS AND THEIR THERAPEUTIC USE” (THE UNIVERSITY COURT OF THE UNIVERSITY OF ABERDEEN, priority 2013, published 2016)", "origin": "cited, not measured here", "key": {"[1]": {"settings": "EM versus PM; cited from earlier work"}, "[2]": {"settings": "cited from earlier work"}}, "data": [{"smiles": "C1CCC(C(CC2CCCCN2)C2CCCCC2)CC1", "note": "(stereo not drawn) [Perhexiline, 2-(2,2-dicyclohexylethyl)piperidine]", "values": [{"measurement": "difference in perhexiline clearance and required dosage between EM and PM patients", "setting": "[1]", "value": "~100", "unit": "fold"}, {"measurement": "plasma perhexiline to metabolite ratio, patients without toxicological side-effects", "setting": "[2]; patients who showed no side-effects", "value": 0.3}, {"measurement": "plasma perhexiline to metabolite ratio, patients with side-effects", "setting": "[2]; patients who showed side-effects", "value": 2.8}]}]}
